Experimental data as given in patent publication US10183015B2, “Heterocyclic compounds and methods of use” (Medivation Technologies LLC, priority 2015, dated 2019).
“And” between values parts separate entries of the source, which are not always exact repeats. Equal values may be shown once.

Legend:
NRF2 = test: DIN mouse model: hepatic NRF2 gene expression; format: in vivo; conditions: liver, 20 mg/kg group
Protocol: Gene expression analysis. Hepatic expression levels of genes involved in lipid metabolism (FAS, SREBP1, ACC1, SCD1), cholesterol metabolism (HMG-CoAR, LDLR), SREBP proteolysis (SCAP, INSIG1), ER stress (PERK), oxidative stress (NRF2), inflammation (MCP-1), and fibrosis (collagen 1α1) were quantified by RTqPCR. Expression level was normalized to 18S gene expression and relative expression to vehicle group was calculated with the […] method.
(§1) Male C57Bl/6J mice (8 weeks old) were housed in enriched ventilated cages (31×12.5×12.7 cm) throughout the experimental phase. Animals' cages litters were changed at least once a week. Animal were housed 5 per cage on inverted 12-hour light cycle (at 09:00 am lights off), 22±2° C. and 55±10% relative humidity. The acclimation period was 20 days. During the acclimation period, all mice were fed a standard diet (RM1 (E) 801492, SDS) and tap water ad libitum. After the acclimation period, mice were fed with the DIN diet (60% fat, cholesterol enriched) and fructose-enriched tap water ad libitum until the end of the experiment.
(§2) At 6 weeks of diet, mice were 4-hour fasted (09:00 am to 1:00 pm) and blood (150 μl/EDTA) was collected at 01:00 pm by retro-orbital bleeding under isoflurane anesthesia. Mice were then allocated in 2 homogenous groups (n=12/group) according to their plasma levels of ALT (average levels: 685U/L), AST (average levels: 627U/L) and HOMA-IR index (average value: 4.7), into 2 homogenous groups (see values at day 0 in Tables 15A and 15B ALT/AST and Tables 16A and 16B for HOMA-IR). Mice were then treated once daily by oral gavage with vehicle (Group 1) or Compound #37 at 20 mg/kg (Group 2) for 70 days.
Hepatic expression levels of genes involved in lipid (FAS, SREBP1, ACC1, SCD1), cholesterol metabolism (HMG-CoAR, LDLR), in SREBP proteolysis (SCAP, INSIG1), in ER stress (PERK), oxidative stress (NRF2), and inflammation (MCP-1) were not changed. However, expression of collagen 1α1, involved in liver fibrosis, was reduced by 66% in mice treated with Compound #37 (p<0.05 vs. vehicle).

SREBP = test: SREBP-responsive promoter luciferase reporter assay in HepG2_LSSprom cells; format: cell-based; conditions: 6 hours of treatment, medium without serum; read-out: IC50 for luciferase expression
Protocol: HepG2_LSSprom cells were cultured in DMEM with 10% fetal bovine serum and 1% penicillin/streptomycin for 24 hours. Cells were then treated with increasing concentrations of Compound #37 or an equal volume of DMSO in culture medium without serum. Luciferase expression was measured and compared after 6 hours of treatment.

[1] = tested on: 60% high fat Paigen diet induced NASH mouse model; test: Short-term Paigen-diet NASH mouse model: liver weight and liver lipid content; format: in vivo
Protocol: To investigate whether Compound #37 prevents the development of pathology associated with NASH and steatosis in an acute exploratory disease model, a study was conducted using a diet-induced acute liver steatosis model in mice. […]
After acclimation, 8-week old male C57Bl/6J mice (Charles River) weighing about 25 g were randomized in 4 groups according their body weight and treated once daily around noon by oral gavage with vehicle, […] (2-hydroxypropyl)-β-cyclodextrin (HP-β-CD) (n=10); Group 2: Compound #37, 5 mg/kg (n=10) Group 3: Compound #37, 20 mg/kg (n=10) Group 4: Compound #37, 40 mg/kg (n=10). During the treatment period, body weight and food intake (measured over 24h) were measured 3 times per week and once a week, respectively. During the acclimation, all mice were fed a standard diet (Special Diets Services RM1 (E), product no. 801492) and tap water ad libitum. […]
After 21 days of treatment, mice were 4-hour fasted (9 am to 1 pm). One hour after the last dosing (noon), blood was collected by retro-orbital bleeding (maximal volume on EDTA) under isoflurane anesthesia to measure plasma triglycerides, total cholesterol, non-esterified fatty acid, ALT and AST. Mice were then sacrificed by cervical dislocation, and livers were harvested and weighed. Liver samples from the same lobe were dissected, frozen, and analyzed as described below.
At the end of the treatment period, livers were weighed, and their lipid content was analyzed. The liver weights were unchanged by the treatment.

[2] = tested on: diet-induced NASH obese insulin resistant mice; test: DIN mouse model: liver oil red O staining (% labeling); format: in vivo
Protocol: as §1, §2
Slides having a single hepatic lobe section stained with H&E and […] were digitized using a Nanozoomer from Hamamatsu. Sections were evaluated with knowledge of groups. […]

[3] = individual animals, vs vehicle mean, 20 mg/kg
[4] = 5 mg/kg p.o. daily, 21 days of diet and treatment, group mean
[5] = 5 mg/kg p.o. daily, 21 days of diet and treatment, individual animals
[6] = 20 mg/kg p.o. daily, 21 days of diet and treatment, group mean
[7] = 20 mg/kg p.o. daily, 21 days of diet and treatment, individual animals
[8] = 40 mg/kg p.o. (stopped after 4 administrations), 9 days of diet, group mean
[9] = 40 mg/kg p.o. (stopped after 4 administrations), 9 days of diet, individual animals

CC(C)Cc1cc(-c2nc(-c3ccc(NS(=O)(=O)C(F)(F)F)cc3Cl)cs2)ccn1 [Compound 37, N-(3-chloro-4-(2-(2-isobutylpyridin-4-yl)thiazol-4-yl)phenyl)-1,1,1-trifluoromethanesulfonamide]
NRF2 Dct (NRF2; individual animals, normalised to 18S, 20 mg/kg): 10.62 and 10.7 and 12.57 and 11.27 and 11.31 and 10.88 and 11.1 and 10.74 and 12.23 and 11.89 and 9.9
NRF2 2^DDct (NRF2; [3]): 1.34 and 1.27 and 0.35 and 0.85 and 0.83 and 1.12 and 0.96 and 1.23 and 0.44 and 0.56 and 2.21
NRF2 DDct (NRF2; [3]): −0.42 and −0.34 and 1.53 and 0.23 and 0.27 and −0.16 and 0.06 and −0.3 and 1.19 and 0.85 and −1.14
NRF2 (Ct) (NRF2; individual animals, 20 mg/kg): 23.17 and 23.25 (2×) and 25.41 and 23.7 and 23.66 and 23.47 and 22.83 and 23.73 and 23.44 and 22.25
NRF2 2^DDct (NRF2; mean, n 11): 1.01
NRF2 (Ct) (NRF2; mean, n 11): 23.5
NRF2 DDct (NRF2; mean, n 11): 0.16
NRF2 Dct (NRF2; mean, n 11): 11.2
IC50 (SREBP): 2.7 µM
liver cholesterol (μg/mg tissue) [1, 4]: 34.4 μg/mg tissue
liver fatty acids (nmol/mg tissue) [1, 4]: 57.6 nmol/mg tissue
liver triglycerides (μg/mg tissue) [1, 4]: 6.2 μg/mg tissue
liver cholesterol (μg/mg tissue) [1, 5]: 42.24 μg/mg tissue and 37.91 μg/mg tissue and 31.39 μg/mg tissue and 23.12 μg/mg tissue and 31.47 μg/mg tissue and 25.31 μg/mg tissue and 29.76 μg/mg tissue and 37.34 μg/mg tissue and 49.15 μg/mg tissue and 36.57 μg/mg tissue
liver fatty acids (nmol/mg tissue) [1, 5]: 65.4 nmol/mg tissue and 66.6 nmol/mg tissue and 53.5 nmol/mg tissue and 47.5 nmol/mg tissue and 55.2 nmol/mg tissue (2×) and 35.5 nmol/mg tissue and 55.0 nmol/mg tissue and 77.4 nmol/mg tissue and 65.2 nmol/mg tissue
liver triglycerides (μg/mg tissue) [1, 5]: 6.91 μg/mg tissue and 7.18 μg/mg tissue and 4.64 μg/mg tissue and 9.62 μg/mg tissue and 6.13 μg/mg tissue (2×) and 5.69 μg/mg tissue and 5.49 μg/mg tissue and 3.62 μg/mg tissue and 6.16 μg/mg tissue
liver cholesterol (μg/mg tissue) [1, 6]: 39.1 μg/mg tissue
liver fatty acids (nmol/mg tissue) [1, 6]: 63.3 nmol/mg tissue
liver triglycerides (μg/mg tissue) [1, 6]: 5.4 μg/mg tissue
liver cholesterol (μg/mg tissue) [1, 7]: 38.32 μg/mg tissue and 42.07 μg/mg tissue and 39.38 μg/mg tissue and 32.61 μg/mg tissue and 40.02 μg/mg tissue and 42.44 μg/mg tissue
liver fatty acids (nmol/mg tissue) [1, 7]: 63.4 nmol/mg tissue and 66.5 nmol/mg tissue and 65.0 nmol/mg tissue and 50.0 nmol/mg tissue and 62.7 nmol/mg tissue and 72.5 nmol/mg tissue
liver triglycerides (μg/mg tissue) [1, 7]: 6.75 μg/mg tissue and 2.65 μg/mg tissue and 2.83 μg/mg tissue and 3.72 μg/mg tissue and 9.84 μg/mg tissue and 6.82 μg/mg tissue
liver cholesterol (μg/mg tissue) [1, 8]: 20.3 μg/mg tissue
liver fatty acids (nmol/mg tissue) [1, 8]: 43.0 nmol/mg tissue
liver triglycerides (μg/mg tissue) [1, 8]: 11.7 μg/mg tissue
liver cholesterol (μg/mg tissue) [1, 9]: 22.40 μg/mg tissue and 20.18 μg/mg tissue and 20.88 μg/mg tissue and 17.60 μg/mg tissue
liver fatty acids (nmol/mg tissue) [1, 9]: 43.6 nmol/mg tissue and 43.1 nmol/mg tissue and 43.5 nmol/mg tissue and 41.8 nmol/mg tissue
liver triglycerides (μg/mg tissue) [1, 9]: 9.11 μg/mg tissue and 11.15 μg/mg tissue and 14.68 μg/mg tissue and 11.77 μg/mg tissue
O red Oil labeling ([2]; 20 mg/kg group, mean, n 11): 12.1%
O red Oil labeling ([2]; 20 mg/kg, individual animals): 12.9% and 15.1% and 0.9% and 18.6% and 19.3% and 21.3% and 0.3% and 8.3% and 19.5% and 13.0% and 4.2%
